Values joined by “and” are separate entries in the source; they are usually repeats but may differ in a detail not shown here. Identical values can stand only once. Counter-ions that a name gives are not always drawn.
Experiments:
β-secretase (BACE) = molecular target: T1, β-secretase (BACE) (Homo sapiens, UniProt P56817); test: BACE FS1 Assay (% Inhibition and Ki); format: biochemical; conditions: FS1 substrate; for inhibition at 0.3 µM / % Inhibition (FS) @ 0.3 μM: 0.3 μM test compound; for inhibition at 0.3 µM: read-out: % Inhibition (FS) @ 0.3 μM; for inhibition at 1 µM / % Inhibition (FS) @ 1 μM: 1 μM test compound; for inhibition at 1 µM: read-out: % Inhibition (FS) @ 1 μM; for inhibition at 3 µM / % Inhibition (FS) @ 3 μM: 3 μM test compound; for inhibition at 3 µM: read-out: % Inhibition (FS) @ 3 μM
T1 construct: purchased Panvera
T1 sequence (P56817 46-501): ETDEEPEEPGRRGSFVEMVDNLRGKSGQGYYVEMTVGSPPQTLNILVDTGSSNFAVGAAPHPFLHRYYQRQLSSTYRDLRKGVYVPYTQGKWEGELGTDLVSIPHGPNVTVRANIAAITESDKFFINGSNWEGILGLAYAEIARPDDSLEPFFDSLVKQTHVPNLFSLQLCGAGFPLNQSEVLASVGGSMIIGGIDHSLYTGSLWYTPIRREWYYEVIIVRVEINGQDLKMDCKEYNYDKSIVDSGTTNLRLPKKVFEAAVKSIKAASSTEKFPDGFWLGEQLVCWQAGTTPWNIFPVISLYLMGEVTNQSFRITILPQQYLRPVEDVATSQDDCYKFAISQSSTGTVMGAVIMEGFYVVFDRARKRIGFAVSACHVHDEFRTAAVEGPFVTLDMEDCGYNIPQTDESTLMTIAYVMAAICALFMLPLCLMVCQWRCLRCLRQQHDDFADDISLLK
Description: BACE FS1 Assay (% Inhibition and Ki)
The following reagents were used in this assay: sodium acetate, PEG8000 (Sigma), DMSO, HEPES, FS1 substrate [R(AedensE)[…]-(DabcylK)R], β-secretase (BACE) (Panvera), and 96-well plate (HE microplate, Molecular Devices).
The following assay buffers were prepared and used in this assay: (1) enzyme assay buffer (0.05 M sodium acetate, pH5, 0.1% PEG8000 (w/v)), (2) substrate assay buffer (0.05 M sodium acetate, pH5), and (3) compound vehicle (30% DMSO in 50 mM HEPES, pH 7.4).
The FS1-substrate stock solution was prepared in DMSO as a 10 mg/mL solution. The FS1-substrate working solution was prepared by diluting the 10 mg/mL stock solution with substrate assay buffer to a final concentration of 300 μg/mL. The β-secretase (BACE) working solution was prepared by diluting a 0.83 mg/mL BACE stock solution with enzyme assay buffer to a final concentration of 4 μg/mL.
Test compounds were dissolved in DMSO to 10 mM. Compounds were further diluted in vehicle to various concentrations in the range of 405 μM to 4.05 μM (13.5× final compound concentration in screening plate).
The screening procedure for this assay was as follows: 15 μL of BACE working solution was pipetted into each well of a 96-well plate. To each well was then pipetted 2 μL of test compound at the selected concentration. Test compound and BACE were then mixed with a pipettor and incubated for 20 min at room temperature. To each well was then added 10 μL of the FS1 substrate working solution. The plates were then incubated for 1 hour at room temperature. The fluorescence for each well was then measured on an LJL analyst (Ex 360 nm/Em 530 nm).
The procedure for the blank was as follows. 15 μL of assay buffer was pipetted into each well to be used as a blank control. To each well was then added 2 μL of vehicle and […] of FS1-substrate working solution. The plates were then incubated for 1 hour at room temperature. The fluorescence was measured on an LJL analyst (Ex 360 nm/Em 530 nm).
The procedure for the positive control was as follows: 15 μL of BACE working solution was pipetted into each well to be used as a positive control. To each well was then pipetted 2 μL of vehicle. Vehicle and BACE were then mixed with a pipettor and incubated for 20 min at room temperature. To each well was then added 10 μL of the FS1 substrate working solution. The plates were then incubated for 1 hour at room temperature. The fluorescence (F1) was then measured on an LJL analyst (Ex 360 nm/Em 530 nm).
For test compounds, % inhibition was determined at each concentration as follows:
% Inhibition values of less than 30% were indistinguishable from control are listed as ≦30% in Table 18, below.
For test compounds, measured at multiple concentrations, the measured T0 and T60 values were used to calculate an IC50 value using Graphpad Software (or PIR). Ki inhibition was determined as follows: For each compound concentration and positive control, rate of cleavage of substrate (Vi, where i=compound concentration in μM) was determined as Δ Fluorescence/Δ time (min). Cleavage rates (Vi) were plotted as a function of inhibitor concentration in μM [I]. […]

human BACE-1 = human BACE-1 (Homo sapiens, UniProt P56817); test: CEREP BACE Inhibition Assay; format: biochemical; conditions: recombinant enzyme
human BACE-1, sequence (P56817 46-501): as above
Method in brief: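 Recombinant human BACE-1 (0.25 μg) was assayed in 0.09 M sodium acetate pH 4.5, with activity followed fluorimetrically as formation of Mca-S-E-V-N-L[…] from peptide substrate. Compound autofluorescence was checked at the detection wavelengths. Basal signal was taken from wells without substrate.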

[1] = 0.3 μM, percent inhibition of the control activity

inhibition at 0.3 µM (β-secretase (BACE)) [%] | inhibition at 1 µM (β-secretase (BACE)) [%] | inhibition at 3 µM (β-secretase (BACE)) [%] | Ki (β-secretase (BACE)) | % Inhibition (FS) @ 0.3 μM (β-secretase (BACE)) [%] | % Inhibition (FS) @ 1 μM (β-secretase (BACE)) [%] | % Inhibition (FS) @ 3 μM (β-secretase (BACE)) [%] | % Inhibition @ 0.3 μM (human BACE-1; [1]) | inhibition at 0.3 µM (human BACE-1; [1]) [%] | IC50 (human BACE-1; read-out: IC50) | SMILES
114 | 118 | 118 | 14 nM | – | – | – | – | – | – | COC(=O)[C@H](COCc1ccccc1)N(C)C(=O)CC[C@@H](C(C)C)N1Cc2cc(Oc3ccccc3)ncc2N=C1N [Compound 51, 2-{[4-(2-Amino-6-phenoxy-4H-pyrido[3,4-d]pyrimidin-3-yl)-5-methyl-(S)-hexanoyl]-methyl-amino}-3-(S)-benzyloxy-propionic acid methyl ester trifluoroacetate salt]
75 | 102 | 110 | 166 nM | – | – | – | – | – | – | NC1=Nc2cnc(Oc3ccccc3)cc2CN1CCNC(=O)C1CCCCC1 [Compound 1]
30 | 63 | 95 | 503 nM | – | – | – | – | – | – | CC(C)C(CCC(=O)N(CCO)C1CCC(c2nnn[nH]2)CC1)N1Cc2cc(Oc3ccccc3)ncc2N=C1N (stereo not drawn) [Compound 12]
32 | 86 | 103 | 151 nM | – | – | – | – | – | – | COCCC(CCC(=O)N(C)C1CCCCC1)N1Cc2cc(Oc3ccccc3)ncc2N=C1N (stereo not drawn) [Compound 23]
106 | 129 | 138 | 27 nM and 16 nM | 121 | 115 | 130 | – | – | – | CC(C)C(CCC(=O)N(C)C1CCC(C(=O)O)CC1)N1Cc2cc(Oc3ccccc3)ncc2N=C1N (stereo not drawn) [Compound 8]
96 | 106 | 115 | 32 nM | – | – | – | – | – | – | COC(=O)[C@H]1CC[C@H](N(C)C(=O)CC[C@@H](C2CCOCC2)N2Cc3cc(Oc4ccccc4)ncc3N=C2N)CC1 [Compound 34]
– | 115 | 119 | 31 nM | 93 | – | – | – | – | – | CC(C)[C@H](CO)NC(=O)CC[C@@H](C(C)C)N1Cc2cc(Oc3ccccc3)ncc2N=C1N [Compound 29]
122 | 139 | 138 | 21 nM | – | – | – | – | – | – | NC1=Nc2cnc(Oc3ccccc3)cc2CN1CCCC(=O)NC1C2CC3CC(C2)CC1C3 (stereo not drawn) [Compound 6]
– | – | – | 21 nM | 114 | 112 | 114 | – | – | – | CC(C)[C@H](CO)NC(=O)CC[C@@H](C(C)C)N1Cc2cc(Oc3ccccc3)ncc2N=C1N [Compound 36]
91 | 106 | 117 | 97 nM | – | – | – | – | – | – | CC(C)[C@H](CCC(=O)N[C@H](CO)C(=O)O)N1Cc2cc(Oc3ccccc3)ncc2N=C1N [Compound 30]
11 | 66 | 108 | 241 nM | – | – | – | – | – | – | CCOC(=O)C1CCC(N(CCO)C(=O)CCC(C(C)C)N2Cc3cc(Oc4ccccc4)ncc3N=C2N)CC1 (stereo not drawn) [Compound 14]
51 | 83 | 97 | 74 nM | – | – | – | – | – | – | CC(C)[C@H](CCC(=O)N(CCO)C(C)C)N1Cc2cc(Oc3ccccc3)ncc2N=C1N [Compound 21]
116 | 124 | 128 | 17 nM | – | – | – | – | – | – | COC(=O)[C@@H](CO)NC(=O)CC[C@@H](C(C)C)N1Cc2cc(Oc3ccccc3)ncc2N=C1N [Compound 28]
30 | 63 | 87 | 517 nM | – | – | – | – | – | – | CC(C)[C@H](CCC(=O)N(C)C1CCC(c2nnn[nH]2)CC1)N1Cc2cc(Oc3ccccc3)ncc2N=C1N (stereo partly drawn) [Compound 13, 4-(S)-(2-Amino-6-phenoxy-4H-pyrido[3,4-d]pyrimidin-3-yl)-5-methyl-hexanoic acid methyl-[4-(1H-tetrazol-5-yl)-cyclohexyl]-amide]
107 | 118 | 118 | 9 nM | – | – | – | – | – | – | CC(C)[C@H](CCC(=O)N(C)[C@@H](COCc1ccccc1)C(=O)O)N1Cc2cc(Oc3ccccc3)ncc2N=C1N [Compound 52, 2-{[4-(2-Amino-6-phenoxy-4H-pyrido[3,4-d]pyrimidin-3-yl)-5-methyl-(S)-hexanoyl]-methyl-amino}-3-(S)-benzyloxy-propionic acid trifluoroacetate salt]
125 | 131 | 138 | 25 nM | – | – | – | – | – | – | CN(C(=O)CC[C@@H](C1CCCCC1)N1Cc2cc(Oc3ccccc3)ncc2N=C1N)C1CCCCC1 [Compound 5]
119 | 121 | 128 | 17 nM | – | – | – | – | – | – | CN(C(=O)CCC(C1CCCCC1)N1Cc2cc(Oc3ccccc3)ncc2N=C1N)C1CCC(C(=O)O)CC1 (stereo not drawn) [Compound 18]
73 | 107 | 116 | 36 nM | – | – | – | – | – | – | CC(C)[C@H](CCC(=O)N[C@H](COCc1ccccc1)C(=O)OCc1ccccc1)N1Cc2cc(Oc3ccccc3)ncc2N=C1N [Compound 48]
136 | 136 | 134 | 10 nM | – | – | – | 95% and 100% | 91 | 140 nM and 150 nM | NC1=Nc2cnc(Oc3ccccc3)cc2CN1[C@@H](CCC(=O)N(CCO)C1CCCCC1)C1CCCCC1 [Compound 7, 4-(2-Amino-6-phenoxy-4H-pyrido[3,4-d]pyrimidin-3-yl)-4S,N-dicyclohexyl-N-(2-hydroxy-ethyl)-butyramide]
82 | 91 | 110 | 127 nM | – | – | – | – | – | – | COC(=O)[C@H](COCc1ccccc1)NC(=O)CC[C@@H](C(C)C)N1Cc2cc(Oc3ccccc3)ncc2N=C1N [Compound 45, 2-[4-(2-Amino-6-phenoxy-4H-pyrido[3,4-d]pyrimidin-3-yl)-5-methyl-(S)-hexanoylamino]-3-(S)-benzyloxy-propionic acid methyl ester hydrobromide salt]
0 | 61 | 93 | 173 nM | – | – | – | – | – | – | CN(C(=O)CCC(CCO)N1Cc2cc(Oc3ccccc3)ncc2N=C1N)C1CCCCC1 (stereo not drawn) [Compound 22]

Reference: patent publication US7531545B2, “2-amino-3,4-dihydro-pyrido[3,4-d]pyrimidine derivatives useful as inhibitors of β-secretase (BACE)” (Janssen Pharmaceutica, N.V., priority 2005, dated 2009)
